Data on 53 sequences can be found in patent publication US8815503B2, “Compositions and methods for immunostimulatory RNA oligonucleotides” (Rheinische Friedrich-Wilhelms-Universitat Bonn, priority 2005, dated 2014).

For the series, the system named is PBMC. Description: 193 ssRNA 4mer-motif library screen: IL-12 (IL-12p40) production in PBMC of six donors, poly-L-Arg complexation, ELISA at 44 hours, IL-12 index and adjusted IL-12 index. Type of series: cell-based, human. Also noted: key to Adjusted IL-12 index Mean: IL-12 index (ratio to 9.2sense) minus donor mean, averaged over 6 donors. To be noted: 193 ssRNA oligonucleotide library; data from six individual donors summarized; ascending order. On the procedure:
FIG. 9: PBMC of six different healthy donors were isolated and stimulated with poly-L-arginine complexed ssRNA oligonucleotides in duplicates. 44 hours after stimulation IL-12p40 production was assessed in supernatant via ELISA. For all tested ssRNA oligonucleotides (table 3), the mean values of the measured duplicates were normalized to the positive control ssRNA oligonucleotide 9.2sense (5′-AGCUUAACCUGUCCUUCAA (SEQ ID NO: 194)) by dividing the mean value of tested oligonucleotide by the mean value of 9.2sense (=IL-12 index of a given oligonucleotide). Next, all individual IL-12 indices were adjusted to the mean value of all IL-12 indices by subtracting the mean value of all IL-12 indices from the individual IL-12 index of a given oligonucleotide (=adjusted IL-12 index). Data from six individual donors were summarized and were assorted in ascending order displaying the corresponding SEM (for a complete listing including numerical data see table 4). FIG. 9A discloses SEQ ID NOS 460-509, respectively, in order of appearance. FIG. 9B discloses SEQ ID NOS 510-559, respectively, in order of appearance. FIG. 9C discloses SEQ ID NOS 560-609, respectively, in order of appearance. FIG. 9D discloses SEQ ID NOS 610-652, respectively, in order of appearance.
All 193 ssRNA oligonucleotides were tested on PBMC of six individual healthy donors using poly-L-Arg for complexation. At 44 hours after stimulation with RNA oligonucleotides, supernatants were collected and IL-12 production was measured by ELISA. Prior to statistical analysis the raw data were processed as follows: for each cell culture plate the mean IL-12 value of the experimental duplicates for each tested ssRNA oligonucleotide were normalized to the ssRNA oligonucleotide RNA9.2sense (5′-AGCUUAACCUGUCCUUCAA-3′ (SEQ ID NO: 194)). This standard RNA oligonucleotide was included as a positive control on all cell culture plates. Normalization was performed by calculating the ratio of IL-12 induced by the tested oligonucleotide and IL-12 induced by the standard oligonucleotide RNA9.2sense. Thus, for each tested oligonucleotide in an individual donor a mean ratio of IL-12 induction was obtained. In the following, this mean of the ratios is referred to as IL-12 index (one value of IL-12 index per donor). […] The corresponding IL-12 index of oligonucleotide ANP175 for donor 3 was calculated to be 1.90 (=1725 pg/ml divided by 908 pg/ml).
Next, the means of all IL-12 indices for every individual donor were calculated. Then the adjusted IL-12 indices were calculated as IL-12 index minus the mean of all IL-12 indices of one individual donor. […] The adjusted IL-12 index of ANP175 was calculated: 1.90 minus 0.44=1.46. The adjusted IL-12 indices from all six donors were summarized by calculating the means and the corresponding standard error of mean. The data are depicted in ascending order (FIG. 9A, B, C, D). The adjusted IL-12 indices of the top thirty ssRNA oligonucleotides of all six donors were compared using a two-tailed Student's t-test (FIG. 10). For most combinations tested, a significant difference was observed when the interval between the analyzed pairs was at least eight or nine places in the assortment.
(In general: ELISA stands for enzyme-linked immunosorbent assay.)

“AAAAAAAAAAAAAAAAAAA (RNA, backbone not given here) [ANP-Oligo 001]”: the “Adjusted IL-12 index Mean” value was −0.48. For the sequence “AAAAAAAACAAAAAAAAAA (RNA, backbone not given here) [ANP-Oligo 002]”, the “Adjusted IL-12 index Mean” value was −0.57. As to “AAAAAAAACACAAAAAAAA (RNA, backbone not given here) [ANP-Oligo 014]”, the “Adjusted IL-12 index Mean” value was −0.64. Take “AAAAAAAACAGAAAAAAAA (RNA, backbone not given here) [ANP-Oligo 015]”: the “Adjusted IL-12 index Mean” value is on record as −0.65. Regarding “AAAAAAAACAUAAAAAAAA (RNA, backbone not given here) [ANP-Oligo 016]”, the “Adjusted IL-12 index Mean” value was −0.37. As to “AAAAAAAACCAAAAAAAAA (RNA, backbone not given here) [ANP-Oligo 005]”, the “Adjusted IL-12 index Mean” value is −0.62.

For the sequence “AAAAAAAACCCAAAAAAAA (RNA, backbone not given here) [ANP-Oligo 017]”, the “Adjusted IL-12 index Mean” value is listed as −0.66. Take “AAAAAAAACCGAAAAAAAA (RNA, backbone not given here) [ANP-Oligo 018]”: the “Adjusted IL-12 index Mean” value is listed as −0.68. On to “AAAAAAAACCUAAAAAAAA (RNA, backbone not given here) [ANP-Oligo 019]”, for which the “Adjusted IL-12 index Mean” value was −0.51. Regarding “AAAAAAAACGAAAAAAAAA (RNA, backbone not given here) [ANP-Oligo 006]”, the “Adjusted IL-12 index Mean” value is reported as −0.63. As to “AAAAAAAACGCAAAAAAAA (RNA, backbone not given here) [ANP-Oligo 020]”, the “Adjusted IL-12 index Mean” value is −0.66. With “AAAAAAAACGGAAAAAAAA (RNA, backbone not given here) [ANP-Oligo 021]” the figure was −0.63; with “AAAAAAAACGUAAAAAAAA (RNA, backbone not given here) [ANP-Oligo 022]”, 0.02; with “AAAAAAAACUAAAAAAAAA (RNA, backbone not given here) [ANP-Oligo 007]”, −0.56.

As for “AAAAAAAACUCAAAAAAAA (RNA, backbone not given here) [ANP-Oligo 023]”, the “Adjusted IL-12 index Mean” value is listed as −0.41. The result for “AAAAAAAACUGAAAAAAAA (RNA, backbone not given here) [ANP-Oligo 024]” reads −0.48. Take “AAAAAAAACUUAAAAAAAA (RNA, backbone not given here) [ANP-Oligo 025]”: the “Adjusted IL-12 index Mean” value is listed as −0.31. Consider “AAAAAAAAGAAAAAAAAAA (RNA, backbone not given here) [ANP-Oligo 003]”, for which the “Adjusted IL-12 index Mean” value is reported as −0.63. For “AAAAAAAAGACAAAAAAAA (RNA, backbone not given here) [ANP-Oligo 026]”, the “Adjusted IL-12 index Mean” value is given as −0.6. Take “AAAAAAAAGAGAAAAAAAA (RNA, backbone not given here) [ANP-Oligo 027]”: the “Adjusted IL-12 index Mean” value is listed as −0.62.

Consider “AAAAAAAAGAUAAAAAAAA (RNA, backbone not given here) [ANP-Oligo 028]”, for which the “Adjusted IL-12 index Mean” value was −0.32. Turning to “AAAAAAAAGCAAAAAAAAA (RNA, backbone not given here) [ANP-Oligo 008]”, the “Adjusted IL-12 index Mean” value is recorded as −0.61. For the sequence “AAAAAAAAGCCAAAAAAAA (RNA, backbone not given here) [ANP-Oligo 029]”, the “Adjusted IL-12 index Mean” value is −0.66. “AAAAAAAAGCGAAAAAAAA (RNA, backbone not given here) [ANP-Oligo 030]”: the “Adjusted IL-12 index Mean” value was −0.6. On to “AAAAAAAAGCUAAAAAAAA (RNA, backbone not given here) [ANP-Oligo 031]”, for which the “Adjusted IL-12 index Mean” value was −0.32. The result for “AAAAAAAAGGAAAAAAAAA (RNA, backbone not given here) [ANP-Oligo 009]” reads −0.66; that for “AAAAAAAAGGCAAAAAAAA (RNA, backbone not given here) [ANP-Oligo 032]”, −0.62; that for “AAAAAAAAGGGAAAAAAAA (RNA, backbone not given here) [ANP-Oligo 033]”, −0.59. “AAAAAAAAGGUAAAAAAAA (RNA, backbone not given here) [ANP-Oligo 034]”: the “Adjusted IL-12 index Mean” value turned out to be 2.21. As for “AAAAAAAAGUAAAAAAAAA (RNA, backbone not given here) [ANP-Oligo 010]”, the “Adjusted IL-12 index Mean” value was −0.16. Consider “AAAAAAAAGUCAAAAAAAA (RNA, backbone not given here) [ANP-Oligo 035]”, for which the “Adjusted IL-12 index Mean” value is reported as −0.22. In the case of “AAAAAAAAGUGAAAAAAAA (RNA, backbone not given here) [ANP-Oligo 036]”, the “Adjusted IL-12 index Mean” value is on record as −0.12. With “AAAAAAAAGUUAAAAAAAA (RNA, backbone not given here) [ANP-Oligo 037]” the figure was 0.21; with “AAAAAAAAUAAAAAAAAAA (RNA, backbone not given here) [ANP-Oligo 004]”, −0.4. In the case of “AAAAAAAAUACAAAAAAAA (RNA, backbone not given here) [ANP-Oligo 038]”, the “Adjusted IL-12 index Mean” value is −0.32. With “AAAAAAAAUAGAAAAAAAA (RNA, backbone not given here) [ANP-Oligo 039]” the figure was −0.05; with “AAAAAAAAUAUAAAAAAAA (RNA, backbone not given here) [ANP-Oligo 040]”, −0.04.

For the sequence “AAAAAAAAUCAAAAAAAAA (RNA, backbone not given here) [ANP-Oligo 011]”, the “Adjusted IL-12 index Mean” value is −0.43. Turning to “AAAAAAAAUCCAAAAAAAA (RNA, backbone not given here) [ANP-Oligo 041]”, the “Adjusted IL-12 index Mean” value is listed as −0.48. Consider “AAAAAAAAUCGAAAAAAAA (RNA, backbone not given here) [ANP-Oligo 042]”, for which the “Adjusted IL-12 index Mean” value is listed as −0.64. Turning to “AAAAAAAAUCUAAAAAAAA (RNA, backbone not given here) [ANP-Oligo 043]”, the “Adjusted IL-12 index Mean” value is recorded as −0.22.

Regarding “AAAAAAAAUGAAAAAAAAA (RNA, backbone not given here) [ANP-Oligo 012]”, the “Adjusted IL-12 index Mean” value is listed as −0.23. The result for “AAAAAAAAUGCAAAAAAAA (RNA, backbone not given here) [ANP-Oligo 044]” reads 0.2; that for “AAAAAAAAUGGAAAAAAAA (RNA, backbone not given here) [ANP-Oligo 045]”, −0.29.

On to “AAAAAAAAUGUAAAAAAAA (RNA, backbone not given here) [ANP-Oligo 046]”, for which the “Adjusted IL-12 index Mean” value came out at 0.97. For “AAAAAAAAUUAAAAAAAAA (RNA, backbone not given here) [ANP-Oligo 013]”, the “Adjusted IL-12 index Mean” value was −0.09. For “AAAAAAAAUUCAAAAAAAA (RNA, backbone not given here) [ANP-Oligo 047]”, the “Adjusted IL-12 index Mean” value is given as −0.45. Consider “AAAAAAAAUUGAAAAAAAA (RNA, backbone not given here) [ANP-Oligo 048]”, for which the “Adjusted IL-12 index Mean” value is listed as −0.35. As for “AAAAAAAAUUUAAAAAAAA (RNA, backbone not given here) [ANP-Oligo 049]”, the “Adjusted IL-12 index Mean” value is −0.07. With “AAAAAAACAACAAAAAAAA (RNA, backbone not given here) [ANP-Oligo 050]” the figure was −0.64. Turning to “AAAAAAACAAGAAAAAAAA (RNA, backbone not given here) [ANP-Oligo 051]”, the “Adjusted IL-12 index Mean” value is listed as −0.66. As to “AAAAAAACAAUAAAAAAAA (RNA, backbone not given here) [ANP-Oligo 052]”, the “Adjusted IL-12 index Mean” value is given as −0.37. With “AAAAAAACACCAAAAAAAA (RNA, backbone not given here) [ANP-Oligo 053]” the figure was −0.67.
